# Data from US6552014B2, “Methods of inhibiting platelet activation with selective serotonin reuptake inhibitors” (HeartDrug Research, L.L.C., priority 1999, dated 2003).
# Tests used:
# Assay in all cases: Flow cytometry of platelet antigen expression, platelet rich plasma
# Format in all cases: cell-based, human
# CD9 = conditions: for CD9 (mean) log fluorescence intensity / CD9 (peak) log fluorescence intensity: PRP
# Description: (§1) For ex vivo assessment of the SSRIs effect on a PAM, a level of a PAM can be assessed by flow cytometry by first obtaining a sample that comprises platelets and then contacting the sample with a platelet activation agonist, such as phorbol myristate acetate (PMA), ADP (adenosine diphosphate), thrombin, collagen, and/or TRAP (thrombin receptor activating peptide), under conditions suitable for activation of platelets in the sample. The sample is in contact with the agonist preferably for a period of time effective to maximally activate the platelets. […] NDMS at 31.1, 64.1 or 143 ng./ml). Then one contacts or stains the samples with a composition that comprises an anti-PAM antibody e.g., having a fluorescent label, preferably in an amount in excess of that required to bind the PAM expressed on the platelets, under conditions suitable for the formation of labeled complexes between the anti-PAM antibody and activated platelets. Then the formation of the complex in the sample is determined (detected or measured). […] The blood-ACD mixture was centrifuged at 1000 r.p.m. for 10 minutes at room temperature. […] The PRP was then centrifuged at 3000 r.p.m. for 10 minutes. […] All cells were then divided into ten plastic capped tubes. Nine portions of washed platelets were incubated with 5 μfluorescein isothiocyanate (FITC)-conjugated antibodies in the dark at +4 °C for 30 minutes, and one part remained unstained and served as a negative control. Surface antigen expression was measured with monoclonal murine anti-human antibodies: CD9 (p24); CD41a (IIb/IIIa, aIIIbb3); CD42b (Ib); CD61(IIIa) (DAKO Corporation, Carpinteria Calif.); CD49b (VLA-2, or a2b1); CD62p (P-selectin); CD31 (PECAM-1); […] The instrument was calibrated daily with fluorescence beads (CaliBRITE; Becton Dickinson) and measured FITC-conjugated fluorescence intensity. All parameters were obtained using four decade logarithmic amplification. The data was collected and stored in list mode, and then analyzed using CELLQuest® (version 1.2.2) software. Procedures are described in detail in (Gurbel, P. […] Serebruany, V. […] Gurbel, P. A. et al., Coron Artery Dis 9: 451-456 (1998) and Serebruany, V. L. et al., Arterioscl Thromb Vasc Biol 19: 153-158 (1999)). The data in table 1 was obtained using the methods described herein, and in particular, in Examples 1 and 2. The levels of various PAMs were assess from samples of human volunteers.
# CPIa-IIa = conditions: for CPIa-IIa (mean) log fluorescence intensity / CPIa-IIa (peak) log fluorescence intensity: PRP
# Description: as §1
# GP IIIa = conditions: PRP
# Description: as §1
# GP IIb/IIIa = conditions: for GP IIb/IIIa (mean) log fluorescence intensity / GP IIb/IIIa (peak) log fluorescence intensity: PRP
# Description: as §1
# GP IIb = conditions: PRP
# Description: as §1
# GP Ib = conditions: for GP Ib (mean) log fluorescence intensity / GP Ib (peak) log fluorescence intensity: PRP
# Description: as §1
# PECAM-1 = conditions: for PECAM-1 (mean) log fluorescence intensity / PECAM-1 (peak) log fluorescence intensity: PRP
# Description: as §1
# [1] = healthy volunteers, sertraline 18.1 ng/ml
# [2] = healthy volunteers, sertraline 44.7 ng/ml
# [3] = healthy volunteers, sertraline 85.3 ng/ml
# [4] = post-angioplasty patient on aspirin, sertraline 18.1 ng/ml
# [5] = post-angioplasty patient on aspirin, sertraline 44.7 ng/ml
# [6] = post-angioplasty patient on aspirin, sertraline 85.3 ng/ml
# [7] = plasma concentration 85.3 ng/ml, equivalent to 200 mg/daily
smiles,measurement,setting,value
CN[C@H]1CC[C@@H](c2ccc(Cl)c(Cl)c2)c2ccccc21 [sertraline],CD9 (mean) log fluorescence intensity,CD9; [1],948
same,CD9 (peak) log fluorescence intensity,CD9; [1],938
same,CD9 (mean) log fluorescence intensity,CD9; [2],905
same,CD9 (peak) log fluorescence intensity,CD9; [2],777
same,CD9 (mean) log fluorescence intensity,CD9; [3],742
same,CD9 (peak) log fluorescence intensity,CD9; [3],716
same,CD9 (mean) log fluorescence intensity,CD9; [4],949
same,CD9 (peak) log fluorescence intensity,CD9; [4],1027
same,CD9 (mean) log fluorescence intensity,CD9; [5],1015
same,CD9 (peak) log fluorescence intensity,CD9; [5],850
same,CD9 (mean) log fluorescence intensity,CD9; [6],984
same,CD9 (peak) log fluorescence intensity,CD9; [6],964
same,"surface expression of CD9 (p24), in words",CD9; [7],diminished surface expression
same,CPIa-IIa (mean) log fluorescence intensity,CPIa-IIa; [1],51
same,CPIa-IIa (peak) log fluorescence intensity,CPIa-IIa; [1],47
same,CPIa-IIa (mean) log fluorescence intensity,CPIa-IIa; [2],49
same,CPIa-IIa (peak) log fluorescence intensity,CPIa-IIa; [2],37
same,CPIa-IIa (mean) log fluorescence intensity,CPIa-IIa; [3],35
same,CPIa-IIa (peak) log fluorescence intensity,CPIa-IIa; [3],30
same,CPIa-IIa (mean) log fluorescence intensity,CPIa-IIa; [4],63
same,CPIa-IIa (peak) log fluorescence intensity,CPIa-IIa; [4],55
same,CPIa-IIa (mean) log fluorescence intensity,CPIa-IIa; [5],70
same,CPIa-IIa (peak) log fluorescence intensity,CPIa-IIa; [5],60
same,CPIa-IIa (mean) log fluorescence intensity,CPIa-IIa; [6],67
same,CPIa-IIa (peak) log fluorescence intensity,CPIa-IIa; [6],60
same,"surface expression of very late antigen-2 (VLA-2, or GPIb-IIa), in words",CPIa-IIa; [7],diminished surface expression
same,GP IIIa (mean) log fluorescence intensity,GP IIIa; [1],1389
same,GP IIIa (peak) log fluorescence intensity,GP IIIa; [1],1197
same,GP IIIa (mean) log fluorescence intensity,GP IIIa; [2],1197
same,GP IIIa (peak) log fluorescence intensity,GP IIIa; [2],1084
same,GP IIIa (mean) log fluorescence intensity,GP IIIa; [3],816
same,GP IIIa (peak) log fluorescence intensity,GP IIIa; [3],704
same,GP IIIa (mean) log fluorescence intensity,GP IIIa; [4],1247
same,GP IIIa (peak) log fluorescence intensity,GP IIIa; [4],1114
same,GP IIIa (mean) log fluorescence intensity,GP IIIa; [5],1404
same,GP IIIa (peak) log fluorescence intensity,GP IIIa; [5],1370
same,GP IIIa (mean) log fluorescence intensity,GP IIIa; [6],1321
same,GP IIIa (peak) log fluorescence intensity,GP IIIa; [6],1310
same,"GP IIb/IIIa expression, flow cytometric graph (FIG. 9), in words","GP IIb/IIIa; 44.7, 85.3 ng/mL of sertraline",dose dependent decrease in the expression
same,GP IIb/IIIa (mean) log fluorescence intensity,GP IIb/IIIa; [1],1038
same,GP IIb/IIIa (peak) log fluorescence intensity,GP IIb/IIIa; [1],991
same,GP IIb/IIIa (mean) log fluorescence intensity,GP IIb/IIIa; [2],748
same,GP IIb/IIIa (peak) log fluorescence intensity,GP IIb/IIIa; [2],518
same,GP IIb/IIIa (mean) log fluorescence intensity,GP IIb/IIIa; [3],533
same,GP IIb/IIIa (peak) log fluorescence intensity,GP IIb/IIIa; [3],421
same,GP IIb/IIIa (mean) log fluorescence intensity,GP IIb/IIIa; [4],911
same,GP IIb/IIIa (peak) log fluorescence intensity,GP IIb/IIIa; [4],679
same,GP IIb/IIIa (mean) log fluorescence intensity,GP IIb/IIIa; [5],962
same,GP IIb/IIIa (peak) log fluorescence intensity,GP IIb/IIIa; [5],798
same,GP IIb/IIIa (mean) log fluorescence intensity,GP IIb/IIIa; [6],1035
same,GP IIb/IIIa (peak) log fluorescence intensity,GP IIb/IIIa; [6],922
same,"surface expression of glycoprotein IIb/IIIa complex (GP IIb/IIIa), in words",GP IIb/IIIa; [7],diminished surface expression
same,GP IIb (mean) log fluorescence intensity,GP IIb; [1],31
same,GP IIb (peak) log fluorescence intensity,GP IIb; [1],26
same,GP IIb (mean) log fluorescence intensity,GP IIb; [2],31
same,GP IIb (peak) log fluorescence intensity,GP IIb; [2],35
same,GP IIb (mean) log fluorescence intensity,GP IIb; [3],30
same,GP IIb (peak) log fluorescence intensity,GP IIb; [3],22
same,GP IIb (mean) log fluorescence intensity,GP IIb; [4],30
same,GP IIb (peak) log fluorescence intensity,GP IIb; [4],29
same,GP IIb (mean) log fluorescence intensity,GP IIb; [5],27
same,GP IIb (peak) log fluorescence intensity,GP IIb; [5],31
same,GP IIb (mean) log fluorescence intensity,GP IIb; [6],37
same,GP IIb (peak) log fluorescence intensity,GP IIb; [6],34
same,"GPIb expression, flow cytometric graph (FIG. 8), in words","GP Ib; 18.1, 44.7 or 85.5 ng/mL of sertraline",dose dependent decrease in the expression
same,GP Ib (mean) log fluorescence intensity,GP Ib; [1],139
same,GP Ib (peak) log fluorescence intensity,GP Ib; [1],125
same,GP Ib (mean) log fluorescence intensity,GP Ib; [2],97
same,GP Ib (peak) log fluorescence intensity,GP Ib; [2],74
same,GP Ib (mean) log fluorescence intensity,GP Ib; [3],65
same,GP Ib (peak) log fluorescence intensity,GP Ib; [3],67
same,GP Ib (mean) log fluorescence intensity,GP Ib; [4],324
same,GP Ib (peak) log fluorescence intensity,GP Ib; [4],305
same,GP Ib (mean) log fluorescence intensity,GP Ib; [5],220
same,GP Ib (peak) log fluorescence intensity,GP Ib; [5],257
same,GP Ib (mean) log fluorescence intensity,GP Ib; [6],182
same,GP Ib (peak) log fluorescence intensity,GP Ib; [6],186
same,"surface expression of GPIb, in words",GP Ib; [7],diminished surface expression
same,"PECAM-1 expression, flow cytometric graph (FIG. 10), in words","PECAM-1; 44.7, 85.3 ng/mL of sertraline",dose dependent decrease in the expression
same,PECAM-1 (mean) log fluorescence intensity,PECAM-1; [1],117
same,PECAM-1 (peak) log fluorescence intensity,PECAM-1; [1],88
same,PECAM-1 (mean) log fluorescence intensity,PECAM-1; [2],104
same,PECAM-1 (peak) log fluorescence intensity,PECAM-1; [2],71
same,PECAM-1 (mean) log fluorescence intensity,PECAM-1; [3],84
same,PECAM-1 (peak) log fluorescence intensity,PECAM-1; [3],66
same,PECAM-1 (mean) log fluorescence intensity,PECAM-1; [4],94
same,PECAM-1 (peak) log fluorescence intensity,PECAM-1; [4],76
same,PECAM-1 (mean) log fluorescence intensity,PECAM-1; [5],99
same,PECAM-1 (peak) log fluorescence intensity,PECAM-1; [5],98
same,PECAM-1 (mean) log fluorescence intensity,PECAM-1; [6],97
same,PECAM-1 (peak) log fluorescence intensity,PECAM-1; [6],93
same,"surface expression of PECAM-1, in words",PECAM-1; [7],diminished surface expression
